In publication PMC7910394, “Design of PSMA ligands with modifications at the inhibitor part: an approach to reduce the salivary gland uptake of radiolabeled PSMA inhibitors?” (EJNMMI Radiopharmacy and Chemistry, 2021):

Assays:
[1] = test system: LNCaP cells; test: Internalization study of 177Lu-labeled ligands in LNCaP cells, normalized to ([125I]I-BA)KuE; format: cell-based, human; settings: 1 h, 37 °C, 1.0 nM 177Lu-compound, normalized to ([125I]I-BA)KuE
Experimental: PSMA-positive LNCaP cells (300265; Cell Lines Service, Eppelheim, Germany) were cultivated in Dulbecco’s modified Eagle medium/Nutrition Mixture F-12 with GlutaMAX (1/1, DMEM-F12, Thermo Fisher Scientific, Darmstadt, Germany) supplemented with 10% fetal bovine serum (Merck KGaA, Darmstadt, Germany) and kept at 37 °C in a humidified 5% CO2 atmosphere. One day (24 ± 2 h) prior to all in vitro experiments, the cultivated LNCaP cells were harvested using a mixture of trypsin/ethylenediamine-tetraacetic acid (0.05%/0.02%) in PBS (Thermo Fisher Scientific, Darmstadt, Germany) and centrifuged at 1300 rpm (ca. 190×g) for 3 min at room temperature (Heraeus Megafuge 16, Thermo Fisher Scientific, Darmstadt, Germany). After centrifugation, the supernatant was disposed and the cell pellet was resuspended in culture medium. Cells were counted with a Neubauer hemocytometer (Paul Marienfeld GmbH & Co. KG, Lauda-Königshofen, Germany) and seeded in 24-well plates.
Detailed information on affinity and internalization experiments is provided in the supporting information. […] IC50 values of (^natI-BA)KuE were determined on the same day for monitoring assay performance and to identify abnormal deviations in uptake and/or affinity. […] Data were corrected for non-specific binding and normalized to the specific internalization observed for the radioiodinated reference compound (n = 3).
The culture medium was removed and the cells were washed with 500 µL of DMEM-F12 containing 5% BSA. Afterwards, 200 µL of DMEM-F12 (5% BSA) were added to each well and left to equilibrate at 37 °C for 15 min. 25 µL of DMEM-F12 (5% BSA) were added to each well, followed by the addition of 25 µL of the respective ^177Lu-labeled ligand (10.0 nM in DMEM-F12 (5% BSA)). For blocking PSMA-specific binding and uptake, 25 µL of 2-(phosphonomethyl)pentane-1,5-dioic acid (2-PMPA) (100 µM in DMEM (5% BSA)) instead of DMEM-F12 (5% BSA) were added prior to radiotracer addition. […] Each experiment (control and blockade) was performed in triplicate. […] Incubation was terminated by placing the plate on ice (4 °C, 1 min) and removal of the incubation medium. The cells were washed with 250 µL of ice-cold PBS and the wash medium was combined with the respective supernatant. This fraction represents the amount of free radioligand. 250 µL of ice-cold 2-PMPA (10 µM in PBS) were added and the cells were incubated for 10 min at 4 °C. Afterwards, the cells were rinsed again with 250 µL of ice-cold PBS and the wash medium was combined with the respective supernatant. This fraction represents the amount of cell surface-bound ligand. In the last step, the cells were lysed by addition of 250 µL of 1 M aqueous NaOH. After 20 min, the lysate of each well was transferred to the respective vial as well as 250 µL of 1 M NaOH used for rinsing the well. This fraction represents the amount of internalized radioligand. Quantification of the amount of free, cell surface-bound and internalized activity was performed in a γ-counter.

[2] = test system: LNCaP tumor xenograft-bearing CB17-SCID mouse; format: in vivo; settings: 1 h p.i.
Experimental: Detailed information on organ preparation and extraction procedures is provided in the supporting information. In brief, [^177Lu]Lu-11 (9.64 MBq) was injected into the tail vein of a LNCaP tumor xenograft-bearing CB17-SCID mouse. The animal was sacrificed 1 h p.i. and subjected to the standard procedure for biodistribution studies. In addition, urine was taken from all mice that were investigated in this experiment (8.4–9.0 MBq injected activity) and pooled (n = 5). Liver, tumor and kidneys were homogenized with a MM-400 ball mill (Retsch GmbH, Haan, Germany) at 30 Hz for 20 min and extracted with 1 mL radioimmunoprecipitation assay (RIPA) buffer containing 2 μmol of 2-(phosphonomethyl)pentane-1,5-dioic acid (2-PMPA). The suspension was centrifuged (15,200 rpm, 10 min, 21 °C) and the supernatants were loaded onto a preconditioned Strata-X cartridge (200 mg). Elution of the activity was conducted by 750 μL of MeCN/H2O (6/4, 0.1% TFA) and the extracts were analyzed via radio-RP-HPLC. Prior to solid phase extraction, blood samples were centrifuged twice (13,000 rpm, 5 min) to separate the plasma from the blood cells. Urine samples were also centrifuged (13,000 rpm, 5 min) and the supernatant was directly analyzed via radio-RP-HPLC.
Besides biodistribution and μSPECT/CT studies, [^177Lu]Lu-11 (tetrazole) was analyzed according to its metabolic stability 1 h p.i. Relevant dissected organs (tumor, kidney, liver) and body fluids (blood and urine) were collected, homogenized if necessary and subjected to extraction of the incorporated activity. […] The respective radio-RP-HPLC analyses of extracts from homogenized organs and body fluids are depicted in Figure 1 in the supporting information.
[^177Lu]Lu-11 (9.64 MBq) was injected into the tail vein of a LNCaP tumor xenograft-bearing CB17-SCID mouse. The animal was sacrificed 1 h p.i. and subjected to the standard procedure for biodistribution studies. In addition, urine was taken from all mice that were investigated in this experiment (8.4 - 9.0 MBq) and pooled (n = 5). Relevant dissected organs (tumor, kidneys, liver) and body fluids (blood and urine) were collected, homogenized if necessary and subjected to mechanochemical as well as solid phase extraction (SPE).
Four 2 mL LoBind tubes were equipped with steel and ceramic beads from Lysis Tubes W (analytikjena, Jena, Germany) for kidneys, tumor and liver (bisected). 1 mL radioimmunoprecipitation assay (RIPA) buffer containing 2.0 µmol of 2-PMPA was added to each tube and the organs were homogenized with a MM-400 ball mill (Retsch GmbH, Haan, Germany) at 30 Hz for 20 min. Afterwards, the homogenates were transferred to LoBind tubes free from steel and ceramic beads and centrifuged (15,200 rpm, 10 min, 21 °C). The first supernatants were stored, and the precipitates were again subjected to mechanochemical extraction with 1 mL RIPA buffer (2.0 µmol PMPA) at 30 Hz for 20 min. After centrifugation (15,200 rpm, 10 min, 21 °C), also the second supernatants were kept for SPE.
After cardiac puncture, 1 mL Tracepur®-H2O was directly added to the collected blood sample and centrifuged twice (13,000 rpm, 5 min) to separate the plasma from the blood cells. The precipitate was dissolved in 500 µL Tracepur®-H2O and together with the first supernatant again centrifuged (13,000 rpm, 5 min). Both supernatants were kept for SPE.
Pooled urine samples were centrifuged (13,000 rpm, 5 min) and the supernatant was directly analyzed via radio-RP-HPLC.

CC(C)(C)[Si](F)(c1ccc(C(=O)NC[C@@H](NC(=O)CN2CCN(CC(=O)[O-])CCN(CC(=O)[O-])CCN(CC(=O)[O-])CC2)C(=O)N[C@H](CCCCNC(=O)CCC(=O)NCCC[C@@H](NC(=O)CC[C@H](NC(=O)N[C@@H](CCc2nnn[nH]2)C(=O)O)C(=O)O)C(=O)O)C(=O)O)cc1)C(C)(C)C.[Lu+3] [^natLu/[^177Lu]Lu-11]
%Internalization compared to the reference [1]: 1 h: 9.9 ± 3.2%
%Internalization compared to the reference ([1]; listed as [^177Lu]Lu-11): 9.9 ± 3.2%
metabolite with higher hydrophilicity found in the urine ([2]; pooled urine (n = 5)): 18.7%
metabolite with higher hydrophilicity detected in blood ([2]; radio-RP-HPLC of extract): 8.5%
metabolite with higher hydrophilicity detected in kidney ([2]; radio-RP-HPLC of extract): 11.7%
metabolite with higher hydrophilicity detected in tumor ([2]; radio-RP-HPLC of extract): 7.1%
metabolite with higher hydrophilicity in the liver homogenate ([2]; radio-RP-HPLC of extract): not detectable
more lipophilic metabolite (tR = 20.5 min) in the liver homogenate ([2]; radio-RP-HPLC of extract): 28.0%
